Assay results from ChEMBL document CHEMBL5338737, “Lysine-Specific Demethylase 1 Promises to Be a Novel Target in Cancer Drug Resistance: Therapeutic Implications” (J Med Chem, 2023).

Legend:
[1] = biological target: T1, Lysine-specific histone demethylase 1A (Homo sapiens, UniProt O60341)
Description: Inhibition of LSD1 (unknown origin)

[2] = biological target: T1, Lysine-specific histone demethylase 1A; assay: Inhibition of recombinant LSD1 (unknown origin) incubated for 1 hr by fluorescence based analysis

Row | IC50 [1] | IC50 [2] | SMILES
1 | 127 nM | – | C/C(=N\NC(=O)c1cccc(S(=O)(=O)N2CCN(C)CC2)c1)c1cc(Cl)ccc1O
2 | < 1000 nM | – | NC1CC1c1ccc(NC(=O)c2ccc(O)c3ncccc23)cc1 (stereo not drawn)
3 | – | 400 nM | COc1cc2c(c(O)c1OC)c(=O)c1ccccc1n2C [ARBORININE]
